# Measured values: ChEMBL document CHEMBL5252567, “Tetrazole-based inhibitors of the bacterial enzyme N-succinyl-l,l-2,6-diaminopimelic acid desuccinylase as potential antibiotics” (Bioorg Med Chem Lett, 2023)
# Key:
# [1] = target: T1, Succinyl-diaminopimelate desuccinylase (Haemophilus influenzae (strain ATCC 51907 / DSM 11121 / KW20 / Rd)) (UniProt P44514); assay: Inhibition of Haemophilus influenzae DapE at 100 uM relative to control
# T1 sequence (whole entry): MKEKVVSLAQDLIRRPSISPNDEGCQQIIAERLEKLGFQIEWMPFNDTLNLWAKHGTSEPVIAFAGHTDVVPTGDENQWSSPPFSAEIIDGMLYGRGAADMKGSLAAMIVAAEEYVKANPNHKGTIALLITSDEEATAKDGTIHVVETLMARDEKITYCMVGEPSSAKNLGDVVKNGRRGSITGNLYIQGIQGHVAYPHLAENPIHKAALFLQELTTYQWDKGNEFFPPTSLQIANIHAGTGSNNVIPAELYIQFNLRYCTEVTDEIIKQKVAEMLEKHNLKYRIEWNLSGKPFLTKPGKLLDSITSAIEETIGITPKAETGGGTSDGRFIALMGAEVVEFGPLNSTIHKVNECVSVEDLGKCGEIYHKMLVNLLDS
# [2] = target: T2, Succinyl-diaminopimelate desuccinylase (Haemophilus influenzae (strain ATCC 51907 / DSM 11121 / KW20 / Rd), UniProt P44514); assay: Inhibition of Haemophilus influenzae DapE
# T2 sequence (P44514 whole entry): T1 sequence (whole entry)
# [3] = target: T1, Succinyl-diaminopimelate desuccinylase (Haemophilus influenzae (strain ATCC 51907 / DSM 11121 / KW20 / Rd)); assay: Inhibition of Haemophilus influenzae DapE at 75 uM relative to control
Compound,inhibition [1] [%],IC50 [2] [µM],inhibition [3] [%]
O=C(CSc1nnnn1-c1ccccc1)NCc1ccccc1,61.5,103,
CC(Sc1nnnn1-c1ccccc1)C(=O)Nc1nccs1 (centres undefined),35.6,,
O=C(CSc1nnnn1-c1ccccc1)Nc1ccccc1,83.8,54.3,
O=C(CSc1nnnn1-c1ccccc1)Nc1nccs1,71.5,50.2,
O=C(CSc1nnnn1-c1ccccc1)Nc1ccccn1,26.5,,
CC(Sc1nnnn1-c1ccccc1)C(=O)NCc1ccccc1 (centres undefined),36.3,,
O=C(CSc1nnnn1-c1ccccc1)Nc1cnccn1,10.2,,
CC(Sc1nnnn1-c1ccccc1)C(=O)Nc1ccccc1 (centres undefined),55.4,134,
O=C(CSc1nnnn1-c1ccccc1)Nc1ccon1,49.2,,

# Further lines, results first:
inhibition [1] [%],IC50 [2] [µM],inhibition [3] [%],Compound
17.2,,,CC(Sc1nnnn1-c1ccccc1)C(=O)Nc1ccon1 (centres undefined)
71,57.3,,CC(Sc1nnnn1-c1ccccc1)C(=O)Nc1ccc(Cl)cn1 (centres undefined)
9.7,,,CC(Sc1nnnn1-c1ccccc1)C(=O)Nc1cnccn1 (centres undefined)
,,39.5,O=C(CSc1nnnn1-c1ccccc1)Nc1ccc(Cl)cn1
23.2,,,CC(Sc1nnnn1-c1ccccc1)C(=O)Nc1ccccn1 (centres undefined)
